Data taken from paper PMC3961306, “Comparison of the Cancer Gene Targeting and Biochemical Selectivities of All Targeted Kinase Inhibitors Approved for Clinical Use” (PLoS ONE, 2014).
Where two headings read alike, the source gives them in different places.

Legend:
[1] = biological target: T1, panel of more than 300 wild-type and mutant kinases (313 kinase panel) (Homo sapiens, UniProt Q9UL54); assay: Kinase profiling in a biochemical assay panel (mobility shift assays and ELISA), %-inhibition at 1 μM; selectivity entropy; conditions: kinase TAOK2; 1 μM
T1 sequence (Q9UL54 1-1235): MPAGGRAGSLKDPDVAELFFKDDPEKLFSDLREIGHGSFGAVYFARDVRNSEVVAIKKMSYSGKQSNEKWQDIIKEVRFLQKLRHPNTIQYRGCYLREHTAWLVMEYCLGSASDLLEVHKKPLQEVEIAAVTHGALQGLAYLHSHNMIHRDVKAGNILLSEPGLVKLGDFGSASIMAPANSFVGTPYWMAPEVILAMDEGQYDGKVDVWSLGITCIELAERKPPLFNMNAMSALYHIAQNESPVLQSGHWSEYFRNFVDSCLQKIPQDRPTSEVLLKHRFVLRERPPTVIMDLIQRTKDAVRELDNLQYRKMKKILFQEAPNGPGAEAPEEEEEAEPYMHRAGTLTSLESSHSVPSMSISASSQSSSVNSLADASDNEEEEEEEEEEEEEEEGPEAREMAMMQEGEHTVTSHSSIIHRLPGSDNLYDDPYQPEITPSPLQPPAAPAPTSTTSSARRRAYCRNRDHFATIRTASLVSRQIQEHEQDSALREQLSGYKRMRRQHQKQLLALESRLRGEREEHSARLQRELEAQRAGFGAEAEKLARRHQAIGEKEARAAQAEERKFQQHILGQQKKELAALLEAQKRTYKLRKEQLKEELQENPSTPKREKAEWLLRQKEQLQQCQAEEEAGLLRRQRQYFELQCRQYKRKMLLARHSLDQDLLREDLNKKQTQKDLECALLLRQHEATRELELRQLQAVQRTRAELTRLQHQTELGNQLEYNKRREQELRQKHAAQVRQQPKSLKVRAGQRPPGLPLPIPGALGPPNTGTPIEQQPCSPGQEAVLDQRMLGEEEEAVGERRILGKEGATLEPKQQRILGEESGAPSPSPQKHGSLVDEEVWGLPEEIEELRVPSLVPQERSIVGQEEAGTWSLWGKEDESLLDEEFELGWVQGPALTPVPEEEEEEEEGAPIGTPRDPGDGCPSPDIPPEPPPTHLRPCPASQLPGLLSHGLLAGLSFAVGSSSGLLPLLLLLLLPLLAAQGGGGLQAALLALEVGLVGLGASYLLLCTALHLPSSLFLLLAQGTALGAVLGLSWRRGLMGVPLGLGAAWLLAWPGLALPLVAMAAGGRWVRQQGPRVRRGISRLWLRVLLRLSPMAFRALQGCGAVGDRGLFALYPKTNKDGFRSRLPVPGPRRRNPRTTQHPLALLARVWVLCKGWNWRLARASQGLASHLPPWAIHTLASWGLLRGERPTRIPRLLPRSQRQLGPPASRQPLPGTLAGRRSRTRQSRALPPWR

[2] = biological target: panel of more than 300 wild-type and mutant kinases (313 kinase panel) (Homo sapiens, UniProt P04049); assay: as above
Chain of panel of more than 300 wild-type and mutant kinases (313 kinase panel) (Homo sapiens, UniProt P04049) (P04049 whole entry, change not shown): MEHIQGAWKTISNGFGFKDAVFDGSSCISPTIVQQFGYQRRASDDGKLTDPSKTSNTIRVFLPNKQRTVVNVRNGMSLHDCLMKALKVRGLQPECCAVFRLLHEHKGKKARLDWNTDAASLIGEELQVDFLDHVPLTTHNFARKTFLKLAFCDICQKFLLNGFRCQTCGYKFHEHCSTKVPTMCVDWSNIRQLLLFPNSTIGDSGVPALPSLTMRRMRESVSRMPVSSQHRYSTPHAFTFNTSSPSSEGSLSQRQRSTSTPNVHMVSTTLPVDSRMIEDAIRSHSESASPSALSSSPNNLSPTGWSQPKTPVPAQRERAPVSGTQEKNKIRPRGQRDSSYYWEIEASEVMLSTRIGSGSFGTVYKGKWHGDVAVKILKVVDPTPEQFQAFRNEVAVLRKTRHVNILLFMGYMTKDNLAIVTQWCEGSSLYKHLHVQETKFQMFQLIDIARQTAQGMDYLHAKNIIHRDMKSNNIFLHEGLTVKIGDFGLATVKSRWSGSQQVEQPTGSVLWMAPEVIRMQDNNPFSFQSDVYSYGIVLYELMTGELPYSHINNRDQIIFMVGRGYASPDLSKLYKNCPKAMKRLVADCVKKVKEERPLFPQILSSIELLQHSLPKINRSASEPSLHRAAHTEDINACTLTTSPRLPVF

[3] = biological target: panel of more than 300 wild-type and mutant kinases (313 kinase panel) (Homo sapiens, UniProt Q04912); assay: as above
[4] = biological target: panel of more than 300 wild-type and mutant kinases (313 kinase panel) (Homo sapiens, UniProt Q9HC98); assay: as above; conditions: kinase NEK6; 1 μM
[5] = biological target: panel of more than 300 wild-type and mutant kinases (313 kinase panel) (Homo sapiens, UniProt Q8N4C8); assay: as above; conditions: kinase MINK; 1 μM
Chain of panel of more than 300 wild-type and mutant kinases (313 kinase panel) (Homo sapiens, UniProt Q8N4C8) (Q8N4C8 whole entry, stated change not applied): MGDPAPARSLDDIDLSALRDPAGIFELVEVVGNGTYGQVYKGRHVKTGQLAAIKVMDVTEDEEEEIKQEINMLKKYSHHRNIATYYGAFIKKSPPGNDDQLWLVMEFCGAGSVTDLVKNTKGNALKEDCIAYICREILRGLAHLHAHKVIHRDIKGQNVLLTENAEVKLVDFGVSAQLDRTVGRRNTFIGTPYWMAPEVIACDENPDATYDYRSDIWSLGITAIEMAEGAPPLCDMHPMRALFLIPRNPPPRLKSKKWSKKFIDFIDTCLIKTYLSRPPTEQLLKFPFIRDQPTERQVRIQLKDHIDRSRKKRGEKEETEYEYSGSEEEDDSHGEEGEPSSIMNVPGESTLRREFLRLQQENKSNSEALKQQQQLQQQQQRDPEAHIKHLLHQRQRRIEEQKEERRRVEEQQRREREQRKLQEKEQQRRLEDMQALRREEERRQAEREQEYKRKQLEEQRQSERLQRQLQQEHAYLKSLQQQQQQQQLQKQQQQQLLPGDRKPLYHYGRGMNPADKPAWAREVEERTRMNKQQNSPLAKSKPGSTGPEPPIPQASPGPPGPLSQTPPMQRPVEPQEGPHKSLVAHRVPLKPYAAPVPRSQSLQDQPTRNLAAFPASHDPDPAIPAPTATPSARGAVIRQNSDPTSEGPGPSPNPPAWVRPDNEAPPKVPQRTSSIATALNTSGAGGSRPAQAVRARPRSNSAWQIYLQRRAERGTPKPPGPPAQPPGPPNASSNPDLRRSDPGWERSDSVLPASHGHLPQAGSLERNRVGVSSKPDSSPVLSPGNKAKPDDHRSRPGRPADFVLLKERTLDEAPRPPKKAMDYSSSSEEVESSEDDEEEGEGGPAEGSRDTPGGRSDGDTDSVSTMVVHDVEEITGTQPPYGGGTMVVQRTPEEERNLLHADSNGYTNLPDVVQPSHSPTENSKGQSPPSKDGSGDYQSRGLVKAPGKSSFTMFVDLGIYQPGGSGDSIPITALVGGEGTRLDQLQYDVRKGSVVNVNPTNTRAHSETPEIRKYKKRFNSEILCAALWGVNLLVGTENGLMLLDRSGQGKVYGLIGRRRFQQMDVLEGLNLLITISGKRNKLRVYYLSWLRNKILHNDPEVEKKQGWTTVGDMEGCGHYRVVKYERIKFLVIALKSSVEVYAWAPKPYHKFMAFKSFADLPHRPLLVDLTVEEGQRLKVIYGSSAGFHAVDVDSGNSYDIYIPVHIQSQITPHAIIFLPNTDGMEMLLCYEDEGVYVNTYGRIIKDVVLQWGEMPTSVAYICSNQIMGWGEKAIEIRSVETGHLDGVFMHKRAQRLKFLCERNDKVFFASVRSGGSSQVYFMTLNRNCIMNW

[6] = biological target: panel of more than 300 wild-type and mutant kinases (313 kinase panel) (Homo sapiens, UniProt P10721, T670I); assay: as above; conditions: 1 µM
Chain of panel of more than 300 wild-type and mutant kinases (313 kinase panel) (Homo sapiens, UniProt P10721, T670I) (P10721 26-976 T670I): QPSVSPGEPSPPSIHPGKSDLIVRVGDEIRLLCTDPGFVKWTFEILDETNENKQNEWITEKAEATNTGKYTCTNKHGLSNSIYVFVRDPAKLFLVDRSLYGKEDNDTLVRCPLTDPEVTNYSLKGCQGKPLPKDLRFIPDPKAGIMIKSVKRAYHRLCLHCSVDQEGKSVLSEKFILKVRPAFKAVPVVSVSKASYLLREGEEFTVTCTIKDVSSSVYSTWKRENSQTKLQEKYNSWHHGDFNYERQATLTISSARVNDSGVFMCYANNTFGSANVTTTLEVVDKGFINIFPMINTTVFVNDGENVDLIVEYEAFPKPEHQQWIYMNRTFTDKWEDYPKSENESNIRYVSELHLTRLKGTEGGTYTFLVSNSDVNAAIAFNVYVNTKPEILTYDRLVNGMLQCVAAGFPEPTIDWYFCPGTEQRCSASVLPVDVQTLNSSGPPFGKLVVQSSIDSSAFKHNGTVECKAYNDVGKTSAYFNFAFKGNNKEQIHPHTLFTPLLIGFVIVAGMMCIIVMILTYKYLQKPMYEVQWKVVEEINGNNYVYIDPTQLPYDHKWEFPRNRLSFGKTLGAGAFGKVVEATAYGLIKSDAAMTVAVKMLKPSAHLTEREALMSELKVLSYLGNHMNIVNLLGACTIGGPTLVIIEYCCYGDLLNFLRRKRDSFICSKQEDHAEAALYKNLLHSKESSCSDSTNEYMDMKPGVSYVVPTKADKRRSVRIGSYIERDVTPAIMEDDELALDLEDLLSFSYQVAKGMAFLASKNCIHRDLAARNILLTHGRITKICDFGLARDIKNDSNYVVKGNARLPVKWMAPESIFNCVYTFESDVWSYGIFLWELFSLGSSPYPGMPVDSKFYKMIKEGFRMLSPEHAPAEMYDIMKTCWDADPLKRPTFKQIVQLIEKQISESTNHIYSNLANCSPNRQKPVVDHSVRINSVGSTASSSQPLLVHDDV

[7] = test system: forty-four human cancer cell lines; assay: Cell proliferation assay (ATPlite, 72 hours) in the 44 cell line Oncolines panel; assay type: cell-based; conditions: Homo sapiens
[8] = biological target: panel of more than 300 wild-type and mutant kinases (313 kinase panel) (Homo sapiens, UniProt P22612); assay: Kinase profiling in a biochemical assay panel (mobility shift assays and ELISA), %-inhibition at 1 μM; selectivity entropy; conditions: kinase PKACγ; 1 μM
[9] = 4-4 cell, read-out: cell panel IC50, J82
[10] = 4-4 cell, read-out: cell panel IC50, PA-1
[11] = 4-4 cell, read-out: cell panel IC50, SJCRH30
[12] = 4-4 cell, read-out: cell panel IC50, SR
[13] = 769-P, read-out: cell panel IC50, 769-P
[14] = 786-0, read-out: cell panel IC50, 786-0
[15] = A 172, read-out: cell panel IC50, A-172
[16] = A204, read-out: cell panel IC50, A-204
[17] = A498, read-out: cell panel IC50, A-498
[18] = A549, read-out: cell panel IC50, A-549
[19] = A-375, read-out: cell panel IC50, A375
[20] = A-427, read-out: cell panel IC50, A-427
[21] = ACHN, read-out: cell panel IC50, ACHN
[22] = AN3-CA, read-out: cell panel IC50, AN3 CA
[23] = AU565, read-out: cell panel IC50, AU-565
[24] = BT-20, read-out: cell panel IC50, BT-20
[25] = BT-549, read-out: cell panel IC50, BT-549
[26] = BXPC-3, read-out: cell panel IC50, BxPC-3
[27] = C-33-A, read-out: cell panel IC50, C-33 A
[28] = CAL-27, read-out: cell panel IC50, CAL 27
[29] = CCRF-CEM, read-out: cell panel IC50, CCRF-CEM
[30] = DLD-1, read-out: cell panel IC50, DLD-1
[31] = FaDu, read-out: cell panel IC50, FaDu
[32] = HCT-15, read-out: cell panel IC50, HCT-15
[33] = HCT-116, read-out: cell panel IC50, HCT-116
[34] = Hs-578T, read-out: cell panel IC50, Hs 578T
[35] = Jurkat E6.1, read-out: cell panel IC50, Jurkat E6.1
[36] = K562, read-out: cell panel IC50, K-562
[37] = LS174T, read-out: cell panel IC50, LS 174T
[38] = LoVo, read-out: cell panel IC50, LoVo
[39] = MG-63, read-out: cell panel IC50, MG-63
[40] = MOLT-4, read-out: cell panel IC50, MOLT-4
[41] = MeWo, read-out: cell panel IC50, MeWo
[42] = NCI-H82, read-out: cell panel IC50, NCI-H82
[43] = NCI-H460, read-out: cell panel IC50, NCI-H460
[44] = OVCAR-3, read-out: cell panel IC50, OVCAR-3
[45] = RPMI-7951, read-out: cell panel IC50, RPMI-7951
[46] = SHP77, read-out: cell panel IC50, SHP-77
[47] = SK-N-AS, read-out: cell panel IC50, SK-N-AS
[48] = SW48, read-out: cell panel IC50, SW48
[49] = SW480, read-out: cell panel IC50, SW480
[50] = SW-620, read-out: cell panel IC50, SW620
[51] = U2OS, read-out: cell panel IC50, U-2 OS
[52] = U-87 MG, 72 h, read-out: IC50 in cell proliferation assay (table S5 cellpanel data)

Cc1cn(-c2cc(NC(=O)c3ccc(C)c(Nc4nccc(-c5cccnc5)n4)c3)cc(C(F)(F)F)c2)cn1 [nilotinib]
%-inhibition of TAOK2 [1]: 7.47%
%-inhibition of RAF1 ([2]; 1 µM): 58%
%-inhibition of RON ([3]; 1 µM): -13%
%-inhibition of NEK6 [4]: 1%
%-inhibition of MINK [5]: 3%
%-inhibition of KIT(T670I) [6]: 18%
IC50 [7, 9]: 6.33 µM
IC50 [7, 10]: 13.8 µM
IC50 [7, 11]: > 31.6 µM
IC50 [7, 12]: 4.31 µM
IC50 [7, 13]: > 31.6 µM
IC50 [7, 14]: 1.11 µM
IC50 [7, 15]: 9.78 µM
IC50 [7, 16]: 0.584 µM
IC50 [7, 17]: 5.04 µM
IC50 [7, 18]: 7.29 µM
IC50 [7, 19]: 9.58 µM
IC50 [7, 20]: 6.73 µM
IC50 [7, 21]: 12.3 µM
IC50 [7, 22]: 26.1 µM
IC50 [7, 23]: 4.63 µM
IC50 [7, 24]: > 31.6 µM
IC50 [7, 25]: 3.33 µM
IC50 [7, 26]: 10.1 µM
IC50 [7, 27]: > 31.6 µM
IC50 [7, 28]: 9.84 µM
IC50 [7, 29]: 6.74 µM
IC50 [7, 30]: 7.3 µM
IC50 [7, 31]: > 31.6 µM
IC50 [7, 32]: 6.17 µM
IC50 [7, 33]: 5.75 µM
IC50 [7, 34]: 7.43 µM
IC50 [7, 35]: 11.8 µM
IC50 [7, 36]: 0.026 µM
IC50 [7, 37]: 6.11 µM
IC50 [7, 38]: 7.46 µM
IC50 [7, 39]: 8.78 µM
IC50 [7, 40]: 4.36 µM
IC50 [7, 41]: > 31.6 µM
IC50 [7, 42]: 31.2 µM
IC50 [7, 43]: 6.49 µM
IC50 [7, 44]: > 31.6 µM
IC50 [7, 45]: 7.78 µM
IC50 [7, 46]: > 31.6 µM
IC50 [7, 47]: 24 µM
IC50 [7, 48]: > 31.6 µM
IC50 [7, 49]: 18 µM
IC50 [7, 50]: 5.3 µM
IC50 [7, 51]: 5.38 µM
IC50 [7, 52]: > 31.6 µM

Cc1ccc(Nc2nccc(N(C)c3ccc4c(C)n(C)nc4c3)n2)cc1S(N)(=O)=O [pazopanib]
%-inhibition of TAOK2 [1]: 53%
%-inhibition of RAF1 ([2]; kinase RAF1, 1 μM): 85%
%-inhibition of RON ([3]; kinase RON, 1 μM): 13%
%-inhibition of NEK6 [4]: -3%
%-inhibition of MINK [5]: 35%
%-inhibition of KIT(T670I) [6]: 68%
IC50 [7, 9]: 28.9 µM
IC50 [7, 10]: 10.6 µM
IC50 [7, 11]: 9.59 µM
IC50 [7, 12]: 6.2 µM
IC50 [7, 13]: 5.99 µM
IC50 [7, 14]: 8.1 µM
IC50 [7, 15]: 13.1 µM
IC50 [7, 16]: 0.229 µM
IC50 [7, 17]: 11.1 µM
IC50 [7, 18]: 14.8 µM
IC50 [7, 19]: 16.7 µM
IC50 [7, 20]: 7.3 µM
IC50 [7, 21]: 9.33 µM
IC50 [7, 22]: 0.289 µM
IC50 [7, 23]: 6.57 µM
IC50 [7, 24]: 19.2 µM
IC50 [7, 25]: 7.91 µM
IC50 [7, 26]: 6.71 µM
IC50 [7, 27]: 7.9 µM
IC50 [7, 28]: 18.6 µM
IC50 [7, 29]: 10.9 µM
IC50 [7, 30]: 10.5 µM
IC50 [7, 31]: 11.5 µM
IC50 [7, 32]: 11.8 µM
IC50 [7, 33]: 17.4 µM
IC50 [7, 34]: 11.5 µM
IC50 [7, 35]: 4.58 µM
IC50 [7, 36]: 12.5 µM
IC50 [7, 37]: 9.94 µM
IC50 [7, 38]: 7.39 µM
IC50 [7, 39]: 13.5 µM
IC50 [7, 40]: 6.89 µM
IC50 [7, 41]: 25.4 µM
IC50 [7, 42]: 8.41 µM
IC50 [7, 43]: 1.63 µM
IC50 [7, 44]: > 31.6 µM
IC50 [7, 45]: 15.1 µM
IC50 [7, 46]: 12.5 µM
IC50 [7, 47]: 19.4 µM
IC50 [7, 48]: 13.1 µM
IC50 [7, 49]: 10.2 µM
IC50 [7, 50]: 9.11 µM
IC50 [7, 51]: 14 µM
IC50 [7, 52]: 24 µM

COc1cc2c(Nc3ccc(Br)cc3F)ncnc2cc1OCC1CCN(C)CC1 [vandetanib]
%-inhibition of TAOK2 [1]: -3.51%
%-inhibition of RAF1 ([2]; kinase RAF1, 1 μM): 41%
%-inhibition of PKACγ [8]: 6%
%-inhibition of NEK6 [4]: -4.3%
%-inhibition of MINK [5]: 24%
IC50 [7, 9]: 5.08 µM
IC50 [7, 11]: 4.02 µM
IC50 [7, 12]: 4.15 µM
IC50 [7, 13]: 1.22 µM
IC50 [7, 14]: 4.37 µM
IC50 [7, 16]: 2.5 µM
IC50 [7, 17]: 3.31 µM
IC50 [7, 18]: 5.49 µM
IC50 [7, 19]: 3.27 µM
IC50 [7, 20]: 2.55 µM
IC50 [7, 21]: 2.28 µM
IC50 [7, 22]: 0.489 µM
IC50 [7, 23]: 3.51 µM
IC50 [7, 24]: 14.6 µM
IC50 [7, 25]: 10 µM
IC50 [7, 26]: 2.1 µM
IC50 [7, 27]: 0.643 µM
IC50 [7, 28]: 1 µM
IC50 [7, 29]: 6.65 µM
IC50 [7, 30]: 6.07 µM
IC50 [7, 31]: 1.29 µM
IC50 [7, 32]: 7.38 µM
IC50 [7, 33]: 9.24 µM
IC50 [7, 34]: 3.91 µM
IC50 [7, 35]: 3.95 µM
IC50 [7, 36]: 0.908 µM
IC50 [7, 37]: 2.81 µM
IC50 [7, 38]: 1.45 µM
IC50 [7, 39]: 6.46 µM
IC50 [7, 40]: 3.4 µM
IC50 [7, 41]: 5.52 µM
IC50 [7, 42]: 7.2 µM
IC50 [7, 43]: 11.9 µM
IC50 [7, 44]: 3.08 µM
IC50 [7, 45]: 4.14 µM
IC50 [7, 46]: 14.6 µM
IC50 [7, 47]: 4.23 µM
IC50 [7, 48]: > 31.6 µM
IC50 [7, 49]: 13.8 µM
IC50 [7, 50]: 16.4 µM
IC50 [7, 51]: 4.09 µM
IC50 [7, 52]: 7.41 µM
